From PubChem BioAssay (NCI)
“And” between values parts separate entries of the source, which are not always exact repeats. Identical values can stand only once.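 How tested: cells in 96-well plates exposed to compound for 48 hours at five concentrations. Here, GI50 denotes the concentration required for 50% inhibition of growth. TGI: concentration producing complete growth inhibition.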

What was measured:
Experiment in all cases: DTP human tumour cell line panel, 48 h
786-0 renal = tested on: 786-0 renal
EKVX NSCLC = tested on: EKVX NSCLC
HT29 colon = tested on: HT29 colon
MCF7 breast = tested on: MCF7 breast
OVCAR-8 ovarian = tested on: OVCAR-8 ovarian
SK-MEL-28 melanoma = tested on: SK-MEL-28 melanoma
SR leukemia = tested on: SR leukemia
UACC-257 melanoma = tested on: UACC-257 melanoma
UACC-62 melanoma = tested on: UACC-62 melanoma
SW-620 colon = tested on: SW-620 colon

Structure (SMILES)	TGI (786-0 renal)	TGI (EKVX NSCLC)	TGI (HT29 colon)	TGI (MCF7 breast)	TGI (OVCAR-8 ovarian)	TGI (SK-MEL-28 melanoma)	TGI (SR leukemia)	TGI (UACC-257 melanoma)	TGI (UACC-62 melanoma)	GI50 (786-0 renal)	GI50 (EKVX NSCLC)	GI50 (HT29 colon)	GI50 (MCF7 breast)	GI50 (OVCAR-8 ovarian)	GI50 (SK-MEL-28 melanoma)	GI50 (SR leukemia)	GI50 (SW-620 colon)	TGI (SW-620 colon)	GI50 (UACC-257 melanoma)	GI50 (UACC-62 melanoma)
O=C1CC(C(=O)O)Cc2c(Br)ccc(O)c21 (centres undefined)	> 100 µM	> 100 µM	> 100 µM	> 100 µM	> 100 µM	> 100 µM	> 100 µM	> 100 µM	> 100 µM											
O=C(/C=C\c1cc(Br)ccc1O)/C=C/c1cc(Br)ccc1O	2.55 µM	3.18 µM	1.84 µM	2.13 µM	11.6 µM	1.96 µM	29.7 µM	4.09 µM	1.8 µM	1.23 µM	1.54 µM	0.451 µM	0.339 µM	0.345 µM	0.555 µM	0.321 µM	0.379 µM	1.61 µM	1.54 µM	0.429 µM
COc1ccc(/C(=C/c2ccc3ccccc3c2)c2nn[nH]n2)cc1OC	> 100 µM	> 100 µM	21.6 µM	> 100 µM	> 100 µM	> 100 µM	> 100 µM	> 100 µM	> 100 µM	5.72 µM	18.2 µM	2.69 µM	4.12 µM	7.1 µM	8.07 µM	2.23 µM	1.36 µM	> 100 µM	56.6 µM	0.867 µM
COc1ccc2nc3cc(Cl)ccc3c(NCCNCC(O)CO)c2c1 (centres undefined)	12.3 µM	13.1 µM	6.91 µM	10.1 µM	11.7 µM	5.43 µM	10.8 µM	12.9 µM	4.01 µM	2.34 µM	3.33 µM	0.726 µM	0.624 µM	1.17 µM	2.19 µM	0.597 µM	0.61 µM	11.3 µM	3.94 µM	1.55 µM
Cc1cc(O[C@@H]2O[C@@H](C)[C@H](O)[C@@H](O)[C@H]2O)c2c3c(c(O[C@@H]4O[C@@H](C)[C@H](O)[C@@H](O)[C@H]4O)cc2c1)C(=O)c1c(O)cccc1C3=O	> 30 µM	> 30 µM	> 30 µM	> 30 µM	> 30 µM	> 30 µM	> 30 µM	> 30 µM	> 30 µM	> 30 µM	> 30 µM	> 30 µM	> 30 µM	> 30 µM	> 30 µM	> 30 µM	> 30 µM	> 30 µM	> 30 µM	> 30 µM
O=c1c2cccc(F)c2sc2c(NCCCNCCO)nc3ccccc3c12	2.84 µM	2.64 µM	3.25 µM	2.53 µM		3.31 µM	4.85 µM	3.99 µM	3.26 µM	1.44 µM	1.29 µM	1.51 µM	1.14 µM		1.86 µM	0.984 µM	1.22 µM	2.62 µM	2.03 µM	1.77 µM
Clc1ccc(-c2nc3c(-c4ccccc4)nc(-c4ccccc4)cn3c2-c2ccc(Cl)cc2)cc1	> 100 µM	> 100 µM	> 100 µM	> 100 µM	> 100 µM	> 100 µM	> 100 µM	> 100 µM	> 100 µM	> 100 µM	> 100 µM	> 100 µM	> 100 µM	> 100 µM	> 100 µM	> 100 µM	> 100 µM	> 100 µM	> 100 µM	> 100 µM
CS(=O)(=O)c1ccc2c(c1)C(=O)c1c-2n(CCCBr)c(=O)c2cc([N+](=O)[O-])ccc12	> 100 µM	> 100 µM	> 100 µM	> 100 µM	> 100 µM	> 100 µM	> 100 µM	> 100 µM	> 100 µM	6.07 µM	> 100 µM	29.5 µM	0.992 µM	29.3 µM	> 100 µM	1.06 µM	0.683 µM	> 100 µM	43.7 µM	4.26 µM
C[C@]12CCCN1CC1=NNC(=O)c3cc(F)cc4[nH]c2c1c34	> 100 µM	49.7 µM	> 100 µM	> 100 µM	> 100 µM	87.2 µM	> 100 µM	73.6 µM	28.3 µM	26.2 µM	13.6 µM	19.2 µM	11.6 µM	19.5 µM	24.9 µM	3.57 µM	16.7 µM	> 100 µM	25.1 µM	12.7 µM
NC(CP(=O)(O)O)C(=O)O (centres undefined)	> 100 µM	> 100 µM	> 100 µM	> 100 µM	> 100 µM	> 100 µM	> 100 µM	> 100 µM	> 100 µM									> 100 µM		
COc1ccc(C2CC(c3ccccc3)=NN2C(=O)c2cc(OC)c(OC)c(OC)c2)cc1O (centres undefined)	3.86 µM	> 100 µM	8.31 µM	> 53.6 µM	> 76.5 µM	> 47.6 µM	5.85 µM	> 54.3 µM	15.8 µM	0.301 µM	3.04 µM	2.96 µM	0.339 µM	0.659 µM	0.597 µM	0.302 µM	0.415 µM	> 55.7 µM	22.1 µM	0.269 µM
[N-]=[N+]=NCCCn1c2c(c3ccc([N+](=O)[O-])cc3c1=O)C(=O)c1cc(I)ccc1-2	16 µM	> 100 µM	> 100 µM	> 100 µM	> 100 µM	> 100 µM	2.87 µM	> 100 µM	18.3 µM	3.17 µM	22 µM	10.7 µM	0.586 µM	11.3 µM	41.5 µM	0.344 µM	1.72 µM	> 100 µM	26.7 µM	3.33 µM
Nc1c(C(=O)c2ccc(C#CCN3CCOCC3)cc2)cnn1-c1ccc(F)cc1	> 25 µM		> 25 µM	> 25 µM	> 25 µM	> 25 µM	> 25 µM	> 25 µM	> 25 µM	> 25 µM		> 25 µM	> 25 µM	> 25 µM	> 25 µM	> 25 µM	> 25 µM	> 25 µM	> 25 µM	> 25 µM
CCCCOC(=O)/C=C\C(=O)NC(N)=O	53.1 µM	56.9 µM		76.7 µM	> 100 µM	42.5 µM	> 100 µM	56.7 µM	30.1 µM	20.1 µM	23.1 µM		13 µM	29.7 µM	19.1 µM	35.7 µM	14.5 µM	32.3 µM	21 µM	15.3 µM
Cc1cc2c(C(=O)NCC#N)cccc2n1-c1nc2c(c(NCc3ccccc3)n1)CCCC2	1.39 µM	2.4 µM	1.05 µM	8.17 µM	1.98 µM	1.86 µM	10.3 µM		0.482 µM	0.382 µM	0.329 µM	0.303 µM	0.25 µM	0.34 µM	0.406 µM	0.257 µM	0.355 µM	1.29 µM		0.203 µM
CCC1=C[C@@H]2CN(C1)Cc1c([nH]c3ccccc13)[C@@](C(=O)OC)(c1cc3c(cc1OC)N(C)[C@H]1[C@@](O)(C(=O)OC)[C@H](OC(C)=O)[C@]4(CC)C=CCN5CC[C@]31[C@@H]54)C2	13 µM	18.8 µM	> 41.6 µM	11.5 µM	25.6 µM	18.2 µM	1.95 µM		18.6 µM	< 0.0205 µM	< 0.01 µM	< 0.01 µM	< 0.01 µM	< 0.0213 µM	< 0.01 µM	< 0.01 µM	< 0.01 µM	17.9 µM		< 0.01 µM
CCSc1nc(NC(C)c2ccccc2)c2cnn(CO)c2n1 (centres undefined)	> 100 µM		> 100 µM	> 100 µM	> 100 µM	> 100 µM	> 100 µM	> 100 µM	> 100 µM	59.9 µM		> 100 µM	52.8 µM	99.3 µM	87.2 µM	79.4 µM	67.9 µM	> 100 µM	6.91 µM	26.6 µM
O=C1Nc2ccc(O)cc2/C1=C\c1ccncc1	39 µM	56 µM		38.2 µM	> 100 µM		17.8 µM	33.3 µM	26.4 µM	18.5 µM	10.6 µM		4.18 µM	25.4 µM		3.75 µM	25.5 µM	58.3 µM	13.2 µM	12.2 µM
CC(=O)OC1CC2C(C)(C)CCC[C@]2(C)C2=C1C(O)=C(C(C)C)C(=O)C2=O (some centres undefined)	2.91 µM	1.53 µM		3.75 µM	14.5 µM	2.16 µM	2.11 µM	3 µM	1.42 µM	0.813 µM	0.3 µM		1.1 µM	2.14 µM	0.68 µM	0.39 µM	0.911 µM	2.92 µM	0.932 µM	0.323 µM
COc1ccc(C2=NN(C=O)C(c3ccc(OS(=O)(=O)c4ccc(C)cc4)c(OC)c3)C2)cc1 (centres undefined)	> 100 µM			> 100 µM	> 100 µM	> 100 µM	> 100 µM	> 100 µM	> 100 µM	21.6 µM			3.7 µM	10.2 µM	10.6 µM	3.02 µM	5.31 µM	> 100 µM	4.22 µM	3.73 µM
COc1ccc(NC(=S)C#N)cc1	> 100 µM		> 100 µM	> 100 µM	> 100 µM	> 100 µM	> 100 µM	> 100 µM	> 100 µM									> 100 µM		
COC1=CC(c2ccc[nH]2)=N/C1=C\c1[nH]c(C)c(C(=O)Oc2ccccc2)c1C	1.64 µM	2.97 µM		1.49 µM	1.45 µM	1.99 µM	1.11 µM	2.41 µM	0.427 µM	0.313 µM	0.164 µM		0.272 µM	0.288 µM	0.595 µM	0.2 µM			0.545 µM	0.198 µM
C=C[C@H]1CN2CCc3c([nH]c4c([C@@H]5CCCN5C)c(O)ccc34)[C@@H]2C[C@@H]1C[C@H]1c2[nH]c3ccccc3c2CCN1C	3.15 µM and 2.83 µM	2.94 µM and 3.07 µM	3.21 µM and 2.95 µM	3.66 µM and 4.3 µM	3.3 µM and 2.96 µM	2.98 µM and 3.3 µM	520 nM [middle of 4 runs]		3.28 µM	1.63 µM						0.161 µM and 0.197 µM	2.48 µM			
CCC(C)C(=O)O[C@H]1C(=O)O[C@@H]2C[C@H]3C(C)=CC(=O)[C@@H](O)[C@]3(C)[C@H]3[C@@H](O)[C@H](O)[C@@]4(C)OC[C@]32[C@@H]14 (some centres undefined)	0.645 µM		0.0272 µM	< 0.01 µM	< 0.0302 µM	0.542 µM	< 0.0204 µM	< 0.01 µM	< 0.0434 µM									0.28 µM		
C/C=C(\C)c1cc(=O)c2c(C)cc3c(c2o1)C(OC)(OC(C)=O)c1c(O)c(C2CC(C)(N(C)C)C(OC(C)=O)C(C)O2)cc(C2CC(N(C)C)C(OC(C)=O)C(C)O2)c1C3=O (centres undefined)	> 21.4 µM	11.6 µM	> 20.4 µM	> 100 µM		26.1 µM	0.842 µM											4.94 µM		
c1ccc(COCC[P+](c2ccccc2)(c2ccccc2)c2ccccc2)cc1	15.6 µM		8.3 µM	7.27 µM	10.8 µM	12.2 µM	11 µM	3.77 µM		3.49 µM		0.478 µM	0.564 µM	1.67 µM	1.59 µM	0.725 µM	1.83 µM	37.7 µM	0.378 µM	
O=c1c2ccccc2nc2n1CCc1c-2[nH]c2cc3c(cc12)OCO3	7.69 µM	> 25 µM		> 25 µM	> 25 µM	> 25 µM	> 25 µM	> 25 µM		1.08 µM								> 25 µM		
